Measured values from patent publication US9302999B2, “Substituted triazoles as herbicides” (E. I. DU PONT DE NEMOURS AND COMPANY, priority 2012, dated 2016).

How the values were obtained:
Assay type in all cases: in vivo
[1] = tested on: ducksalad (Heteranthera limosa); experiment: Test B flooded paddy: ducksalad; conditions: Flood; 250 g ai/ha; applied to paddy water at 2-leaf stage; visually evaluated after 13 to 15 days
Outline: (§1)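 2-leaf plants; pots flooded 3 cm over soil; compound added to paddy water, depth kept constant. Greenhouse 13–15 d. Visual rating vs controls, 0–100 scale (100 = complete control); dash = no result.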

[2] = tested on: pigweed (Amaranthus retroflexus); experiment: Test A pre-/postemergence: pigweed; conditions: for Pigweed plant response rating: visual rating on 0 to 100 scale (0 no effect, 100 complete control), approximately ten days
Outline: (§2)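 Each species received preemergence soil-directed spraying and, at the same time, postemergence treatment of seedlings 2–10 cm tall. Formulation: non-phytotoxic solvent mixture including surfactant. Response assessed visually about ten days on, relative to untreated controls, 0–100 scale.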

[3] = tested on: velvetleaf (Abutilon theophrasti); experiment: Test A pre-/postemergence: velvetleaf; conditions: for Velvetleaf plant response rating: visual rating on 0 to 100 scale (0 no effect, 100 complete control), approximately ten days
Outline: as §2

[4] = tested on: ragweed (common ragweed, Ambrosia elation); experiment: Test C pre-/postemergence: ragweed
Outline: (§3)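 Visual injury scored 0–100 (100 = complete control) against untreated controls after 13–15 greenhouse days. Surfactant-containing solvent formulations applied either to soil after sowing (loam/sand) or over 1- to 4-leaf plants, 2–18 cm tall.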

[5] = tested on: foxtail, giant (giant foxtail, Setaria faberii); experiment: Test C pre-/postemergence: foxtail, giant
Outline: as §3

[6] = tested on: foxtail, giant (giant foxtail, Setaria faberii); experiment: Test A pre-/postemergence: foxtail, giant; conditions: for Foxtail, Giant plant response rating: visual rating on 0 to 100 scale (0 no effect, 100 complete control), approximately ten days
Outline: as §2

[7] = tested on: chickweed (common chickweed, Stellaria media); experiment: Test C postemergence: chickweed
Outline: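 Response values are visual ratings, 0 (no effect) to 100 (complete control), made by comparison with untreated controls 13 to 15 days after postemergence treatment of greenhouse-grown potted plants that were 2 to 18 cm high at spraying.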

[8] = tested on: barnyardgrass (Echinochloa crus-galli); experiment: Test B flooded paddy: barnyardgrass; conditions: Flood; 250 g ai/ha; applied to paddy water at 2-leaf stage; visually evaluated after 13 to 15 days
Outline: as §1

wild oat (Avena fatua) = experiment: Test C pre-/postemergence: wild oat; conditions: Postemergence
Outline: as §3

[9] = tested on: crabgrass, large (large crabgrass, Digitaria sanguinalis); experiment: Test A pre-/postemergence: crabgrass, large; conditions: for Crabgrass, Large plant response rating: visual rating on 0 to 100 scale (0 no effect, 100 complete control), approximately ten days
Outline: as §2

kochia (Kochia scoparia) = experiment: Test C pre-/postemergence: kochia; conditions: Postemergence
Outline: as §3

[10] = Postemergence, 125 g ai/ha, 0 to 100 scale, 0 is no effect, 100 is complete control
[11] = Preemergence, 125 g ai/ha, 0 to 100 scale where 0 is no effect and 100 is complete control
[12] = Preemergence, 500 g ai/ha, 0 to 100 scale (0 no effect, 100 complete control)
[13] = Postemergence, 31 g ai/ha, scale 0 to 100 (0 no effect, 100 complete control)
[14] = Postemergence, 125 g ai/ha, scale 0 to 100, 0 no effect, 100 complete control
[15] = Postemergence, 250 g ai/ha, scale 0 to 100
[16] = Preemergence, 31 g ai/ha, scale of 0 to 100, 0 is no effect, 100 is complete control
[17] = Preemergence, 62 g ai/ha, scale of 0 to 100, 0 is no effect, 100 is complete control
[18] = Preemergence, 125 g ai/ha, scale 0 to 100, 0 no effect, 100 complete control
[19] = Preemergence, 250 g ai/ha, scale 0 to 100, 0 no effect, 100 complete control
[20] = Postemergence, 62 g ai/ha, scale 0 to 100 (0 no effect, 100 complete control)
[21] = 31 g ai/ha, scale 0 to 100 (0 no effect, 100 complete control)
[22] = 62 g ai/ha, scale 0 to 100 (0 no effect, 100 complete control)
[23] = 125 g ai/ha, scale 0 to 100, 0 no effect, 100 complete control
[24] = Postemergence, 16 g ai/ha, scale 0 to 100, 0 no effect, 100 complete control
[25] = Preemergence, 16 g ai/ha, scale 0 (no effect) to 100 (complete control)
[26] = 16 g ai/ha, scale 0 to 100, 0 no effect, 100 complete control

CCc1nn(-c2ccc(C(F)(F)F)cc2)nc1Cc1ccnc(C(F)(F)F)c1 [Compound 155]
Plant response rating, Ducksalad (0 to 100 scale, 0 is no effect, 100 is complete control) [1]: 80 | Plant response rating, Pigweed [2, 10]: 100 | Pigweed plant response rating ([2]; Postemergence, 500 g ai/ha): 100 | Plant response rating, Pigweed [2, 11]: 100 | Plant response rating, Pigweed [2, 12]: 100 | Plant response rating, Velvetleaf [3, 10]: 100 | Velvetleaf plant response rating ([3]; Postemergence, 500 g ai/ha): 100 | Plant response rating, Ragweed [4, 13]: 80 | Plant response rating, Ragweed [4, 14]: 85 | Plant response rating, Ragweed [4, 15]: 85 | Plant response rating, Ragweed [4, 16]: 20 | Plant response rating, Ragweed [4, 17]: 40 | Plant response rating, Ragweed [4, 18]: 85 | Plant response rating, Ragweed [4, 19]: 95 | Plant response rating, Foxtail, Giant [5, 13]: 15 | Plant response rating, Foxtail, Giant [5, 20]: 45 | Plant response rating, Foxtail, Giant [5, 14]: 75 | Plant response rating, Foxtail, Giant [5, 15]: 100 | Plant response rating, Foxtail, Giant [5, 16]: 100 | Plant response rating, Foxtail, Giant [5, 17]: 100 | Plant response rating, Foxtail, Giant [5, 18]: 100 | Plant response rating, Foxtail, Giant [5, 19]: 100 | Plant response rating, Foxtail, Giant [6, 10]: 90 | Foxtail, Giant plant response rating ([6]; Postemergence, 500 g ai/ha): 100 | Plant response rating, Foxtail, Giant [6, 11]: 100 | Plant response rating, Foxtail, Giant [6, 12]: 100 | Plant response rating, Chickweed [7, 21]: 50 | Plant response rating, Chickweed [7, 22]: 70 | Plant response rating, Chickweed [7, 23]: 95 | Plant response rating, Chickweed ([7]; 250 g ai/ha, scale 0 to 100): 100 | Plant response rating, Barnyardgrass (0 to 100 scale, 0 is no effect, 100 is complete control) [8]: 75 | Plant response rating, Oat, Wild (wild oat (Avena fatua); [21]): 40 | Plant response rating, Oat, Wild (wild oat (Avena fatua); [22]): 45 | Plant response rating, Oat, Wild (wild oat (Avena fatua); [23]): 75 | Plant response rating, Oat, Wild (wild oat (Avena fatua); 250 g ai/ha, scale 0 to 100): 90 | Plant response rating, Crabgrass, Large [9, 10]: 100 | Crabgrass, Large plant response rating ([9]; Postemergence, 500 g ai/ha): 100 | Plant response rating, Crabgrass, Large [9, 11]: 100 | Plant response rating, Crabgrass, Large [9, 12]: 100 | Plant response rating, Kochia (kochia (Kochia scoparia); [21]): 90 | Plant response rating, Kochia (kochia (Kochia scoparia); [22]): 90 | Plant response rating, Kochia (kochia (Kochia scoparia); [23]): 95 | Plant response rating, Kochia (kochia (Kochia scoparia); 250 g ai/ha, scale 0 to 100): 95

Cc1nn(-c2ccc(F)c(C(F)(F)F)c2)nc1Cc1ccnc(C(F)(F)F)c1 [Compound 156]
Plant response rating, Ducksalad (0 to 100 scale, 0 is no effect, 100 is complete control) [1]: 90 | Plant response rating, Pigweed [2, 10]: 100 | Pigweed plant response rating ([2]; Postemergence, 500 g ai/ha): 100 | Plant response rating, Pigweed [2, 11]: 100 | Plant response rating, Pigweed [2, 12]: 100 | Plant response rating, Velvetleaf [3, 10]: 100 | Velvetleaf plant response rating ([3]; Postemergence, 500 g ai/ha): 100 | Plant response rating, Velvetleaf [3, 11]: 30 | Plant response rating, Ragweed [4, 13]: 75 | Plant response rating, Ragweed [4, 20]: 75 | Plant response rating, Ragweed [4, 14]: 75 | Plant response rating, Ragweed [4, 15]: 80 | Plant response rating, Ragweed [4, 16]: 5 | Plant response rating, Ragweed [4, 17]: 10 | Plant response rating, Ragweed [4, 18]: 30 | Plant response rating, Ragweed [4, 19]: 60 | Plant response rating, Foxtail, Giant [5, 13]: 10 | Plant response rating, Foxtail, Giant [5, 20]: 15 | Plant response rating, Foxtail, Giant [5, 14]: 25 | Plant response rating, Foxtail, Giant [5, 15]: 50 | Plant response rating, Foxtail, Giant [5, 16]: 90 | Plant response rating, Foxtail, Giant [5, 17]: 90 | Plant response rating, Foxtail, Giant [5, 18]: 90 | Plant response rating, Foxtail, Giant [5, 19]: 95 | Plant response rating, Foxtail, Giant [6, 10]: 90 | Foxtail, Giant plant response rating ([6]; Postemergence, 500 g ai/ha): 100 | Plant response rating, Foxtail, Giant [6, 11]: 100 | Plant response rating, Foxtail, Giant [6, 12]: 100 | Plant response rating, Chickweed [7, 21]: 95 | Plant response rating, Chickweed [7, 22]: 95 | Plant response rating, Chickweed [7, 23]: 95 | Plant response rating, Chickweed ([7]; 250 g ai/ha, scale 0 to 100): 98 | Plant response rating, Barnyardgrass (0 to 100 scale, 0 is no effect, 100 is complete control) [8]: 75 | Plant response rating, Oat, Wild (wild oat (Avena fatua); [21]): 35 | Plant response rating, Oat, Wild (wild oat (Avena fatua); [22]): 50 | Plant response rating, Oat, Wild (wild oat (Avena fatua); [23]): 50 | Plant response rating, Oat, Wild (wild oat (Avena fatua); 250 g ai/ha, scale 0 to 100): 70 | Plant response rating, Crabgrass, Large [9, 10]: 100 | Crabgrass, Large plant response rating ([9]; Postemergence, 500 g ai/ha): 100 | Plant response rating, Crabgrass, Large [9, 11]: 100 | Plant response rating, Crabgrass, Large [9, 12]: 100 | Plant response rating, Kochia (kochia (Kochia scoparia); [21]): 90 | Plant response rating, Kochia (kochia (Kochia scoparia); [22]): 90 | Plant response rating, Kochia (kochia (Kochia scoparia); [23]): 90 | Plant response rating, Kochia (kochia (Kochia scoparia); 250 g ai/ha, scale 0 to 100): 95

FCc1nn(-c2ccc(F)cc2)nc1Oc1ccnc(C(F)(F)F)c1 [Compound 160]
Plant response rating, Ducksalad (0 to 100 scale, 0 is no effect, 100 is complete control) [1]: 90 | Plant response rating, Pigweed [2, 10]: 100 | Pigweed plant response rating ([2]; Postemergence, 500 g ai/ha): 100 | Plant response rating, Pigweed [2, 11]: 100 | Plant response rating, Pigweed [2, 12]: 100 | Plant response rating, Velvetleaf [3, 10]: 90 | Velvetleaf plant response rating ([3]; Postemergence, 500 g ai/ha): 100 | Plant response rating, Velvetleaf [3, 11]: 50 | Plant response rating, Velvetleaf [3, 12]: 70 | Plant response rating, Ragweed [4, 24]: 10 | Plant response rating, Ragweed [4, 13]: 10 | Plant response rating, Ragweed [4, 20]: 40 | Plant response rating, Ragweed [4, 14]: 40 | Plant response rating, Ragweed [4, 25]: 0 | Plant response rating, Ragweed [4, 16]: 0 | Plant response rating, Ragweed [4, 17]: 5 | Plant response rating, Ragweed [4, 18]: 5 | Plant response rating, Foxtail, Giant [5, 24]: 15 | Plant response rating, Foxtail, Giant [5, 13]: 20 | Plant response rating, Foxtail, Giant [5, 14]: 75 | Plant response rating, Foxtail, Giant [5, 25]: 80 | Plant response rating, Foxtail, Giant [5, 16]: 100 | Plant response rating, Foxtail, Giant [5, 17]: 100 | Plant response rating, Foxtail, Giant [5, 18]: 100 | Plant response rating, Foxtail, Giant [6, 10]: 90 | Foxtail, Giant plant response rating ([6]; Postemergence, 500 g ai/ha): 90 | Plant response rating, Foxtail, Giant [6, 11]: 100 | Plant response rating, Foxtail, Giant [6, 12]: 100 | Plant response rating, Chickweed [7, 26]: 70 | Plant response rating, Chickweed [7, 21]: 90 | Plant response rating, Chickweed [7, 22]: 95 | Plant response rating, Chickweed [7, 23]: 98 | Plant response rating, Barnyardgrass (0 to 100 scale, 0 is no effect, 100 is complete control) [8]: 65 | Plant response rating, Oat, Wild (wild oat (Avena fatua); [26]): 15 | Plant response rating, Oat, Wild (wild oat (Avena fatua); [21]): 30 | Plant response rating, Oat, Wild (wild oat (Avena fatua); [22]): 45 | Plant response rating, Oat, Wild (wild oat (Avena fatua); [23]): 60 | Plant response rating, Crabgrass, Large [9, 10]: 90 | Crabgrass, Large plant response rating ([9]; Postemergence, 500 g ai/ha): 90 | Plant response rating, Crabgrass, Large [9, 11]: 100 | Plant response rating, Crabgrass, Large [9, 12]: 100 | Plant response rating, Kochia (kochia (Kochia scoparia); [26]): 90 | Plant response rating, Kochia (kochia (Kochia scoparia); [21]): 90 | Plant response rating, Kochia (kochia (Kochia scoparia); [22]): 95 | Plant response rating, Kochia (kochia (Kochia scoparia); [23]): 95
